Data reported in the NIST ThermoML archive (doi:10.1021/je900596d).

Settings: Vibrating tube method

FC(F)=C(F)C(F)(F)F [hexafluoropropene]
Settings	mass density [kg/m3]
323.21 K, 828.7 kPa, Fluid (supercritical or subcritical phases)	54.45
323.21 K, 843.1 kPa, Fluid (supercritical or subcritical phases)	55.34
323.21 K, 857.3 kPa, Fluid (supercritical or subcritical phases)	56.72
323.21 K, 871.6 kPa, Fluid (supercritical or subcritical phases)	57.78
323.21 K, 885.7 kPa, Fluid (supercritical or subcritical phases)	58.95
323.21 K, 899.5 kPa, Fluid (supercritical or subcritical phases)	60.25
323.21 K, 913.3 kPa, Fluid (supercritical or subcritical phases)	61.27
323.21 K, 926.9 kPa, Fluid (supercritical or subcritical phases)	62.44
323.21 K, 940.4 kPa, Fluid (supercritical or subcritical phases)	63.5
323.21 K, 953.6 kPa, Fluid (supercritical or subcritical phases)	64.78
323.21 K, 979.1 kPa, Fluid (supercritical or subcritical phases)	66.9
323.21 K, 991.3 kPa, Fluid (supercritical or subcritical phases)	67.99
323.21 K, 1002.7 kPa, Fluid (supercritical or subcritical phases)	69.01
323.21 K, 1014.7 kPa, Fluid (supercritical or subcritical phases)	70.07
323.21 K, 1026.1 kPa, Fluid (supercritical or subcritical phases)	71.06
323.21 K, 1037.2 kPa, Fluid (supercritical or subcritical phases)	72
323.21 K, 1048.9 kPa, Fluid (supercritical or subcritical phases)	73.11
323.21 K, 1059.5 kPa, Fluid (supercritical or subcritical phases)	74
323.21 K, 1071.8 kPa, Fluid (supercritical or subcritical phases)	75.2
323.21 K, 1084.6 kPa, Fluid (supercritical or subcritical phases)	76.45
323.21 K, 1096.6 kPa, Fluid (supercritical or subcritical phases)	77.55
323.21 K, 1108.7 kPa, Fluid (supercritical or subcritical phases)	78.69
323.21 K, 1120.7 kPa, Fluid (supercritical or subcritical phases)	80.05
323.21 K, 1132.3 kPa, Fluid (supercritical or subcritical phases)	81.01
323.21 K, 1143.9 kPa, Fluid (supercritical or subcritical phases)	82.09
323.21 K, 1155.2 kPa, Fluid (supercritical or subcritical phases)	83.24
323.21 K, 1165.7 kPa, Fluid (supercritical or subcritical phases)	84.23
323.21 K, 1176.1 kPa, Fluid (supercritical or subcritical phases)	85.31
323.21 K, 1188.5 kPa, Fluid (supercritical or subcritical phases)	86.52
323.21 K, 1200.2 kPa, Fluid (supercritical or subcritical phases)	87.81
323.21 K, 1211.6 kPa, Fluid (supercritical or subcritical phases)	88.92
323.21 K, 1222.4 kPa, Fluid (supercritical or subcritical phases)	90.01
323.21 K, 1232.6 kPa, Fluid (supercritical or subcritical phases)	91.08
323.21 K, 1244.2 kPa, Fluid (supercritical or subcritical phases)	92.41
323.21 K, 1254.9 kPa, Fluid (supercritical or subcritical phases)	93.54
323.21 K, 1265.5 kPa, Fluid (supercritical or subcritical phases)	94.64
323.21 K, 1276.2 kPa, Fluid (supercritical or subcritical phases)	95.86
323.21 K, 1286.6 kPa, Fluid (supercritical or subcritical phases)	97.01
323.21 K, 1298.7 kPa, Fluid (supercritical or subcritical phases)	98.44
323.21 K, 1311.6 kPa, Fluid (supercritical or subcritical phases)	99.8
323.21 K, 1324 kPa, Fluid (supercritical or subcritical phases)	101.35
323.21 K, 1336 kPa, Fluid (supercritical or subcritical phases)	102.77
323.21 K, 1347.5 kPa, Fluid (supercritical or subcritical phases)	104.06
323.21 K, 1358.7 kPa, Fluid (supercritical or subcritical phases)	105.47
323.21 K, 1369.5 kPa, Fluid (supercritical or subcritical phases)	106.75
323.21 K, 1380 kPa, Fluid (supercritical or subcritical phases)	108.11
323.21 K, 1392.5 kPa, Fluid (supercritical or subcritical phases)	109.8
323.21 K, 1402.5 kPa, Fluid (supercritical or subcritical phases)	110.98
323.21 K, 1410.5 kPa, Fluid (supercritical or subcritical phases)	112.1
323.21 K, 1411.1 kPa, Fluid (supercritical or subcritical phases)	112.29
323.21 K, 1411.8 kPa, Fluid (supercritical or subcritical phases)	112.41
323.21 K, 1412.5 kPa, Fluid (supercritical or subcritical phases)	112.57
323.21 K, 1413.3 kPa, Fluid (supercritical or subcritical phases)	112.79
323.21 K, 1414.6 kPa, Fluid (supercritical or subcritical phases)	113.23
323.21 K, 1415.9 kPa, Fluid (supercritical or subcritical phases)	113.81
323.21 K, 1417 kPa, Fluid (supercritical or subcritical phases)	114.07
323.21 K, 1417.8 kPa, Fluid (supercritical or subcritical phases)	114.29
323.21 K, 1418.6 kPa, Fluid (supercritical or subcritical phases)	115.65
323.21 K, 1418.8 kPa, Fluid (supercritical or subcritical phases)	116.26
323.37 K, 1419.4 kPa, Liquid	1174.23
323.37 K, 1421.5 kPa, Liquid	1174.38
323.37 K, 1423.2 kPa, Liquid	1174.38
323.37 K, 1425.7 kPa, Liquid	1174.43
323.37 K, 1427.1 kPa, Liquid	1174.45
323.37 K, 1432.2 kPa, Liquid	1174.63
323.37 K, 1436.2 kPa, Liquid	1174.81
323.37 K, 1440.4 kPa, Liquid	1174.76
323.37 K, 1445.7 kPa, Liquid	1175
323.37 K, 1451.5 kPa, Liquid	1175.02
323.37 K, 1457.1 kPa, Liquid	1175.21
323.37 K, 1466.8 kPa, Liquid	1175.47
323.37 K, 1497.2 kPa, Liquid	1176.12
323.37 K, 1510 kPa, Liquid	1176.43
323.37 K, 1522.1 kPa, Liquid	1176.69
323.37 K, 1537.1 kPa, Liquid	1176.99
323.37 K, 1549.7 kPa, Liquid	1177.31
323.37 K, 1563.1 kPa, Liquid	1177.61
323.37 K, 1577.9 kPa, Liquid	1178.01
323.37 K, 1593 kPa, Liquid	1178.25
323.37 K, 1606 kPa, Liquid	1178.65
323.37 K, 1618.2 kPa, Liquid	1178.79
323.37 K, 1633 kPa, Liquid	1179.18
323.37 K, 1650.5 kPa, Liquid	1179.47
323.37 K, 1665.3 kPa, Liquid	1179.86
323.37 K, 1679.6 kPa, Liquid	1180.16
323.37 K, 1693.1 kPa, Liquid	1180.45
323.37 K, 1699.6 kPa, Liquid	1180.56
323.37 K, 1718.6 kPa, Liquid	1180.95
323.37 K, 1737.4 kPa, Liquid	1181.34
323.37 K, 1760 kPa, Liquid	1181.89
323.37 K, 1778.2 kPa, Liquid	1182.25
323.37 K, 1797.3 kPa, Liquid	1182.59
323.37 K, 1819.1 kPa, Liquid	1183.13
323.37 K, 1845.8 kPa, Liquid	1183.69
323.37 K, 1870.4 kPa, Liquid	1184.11
323.37 K, 1897.4 kPa, Liquid	1184.74
323.37 K, 1924.8 kPa, Liquid	1185.37
323.37 K, 1943.5 kPa, Liquid	1185.64
323.37 K, 1970 kPa, Liquid	1186.24
323.37 K, 1988.8 kPa, Liquid	1186.54
323.37 K, 2013.8 kPa, Liquid	1187.15
323.37 K, 2040.4 kPa, Liquid	1187.71
323.37 K, 2074.7 kPa, Liquid	1188.33
323.37 K, 2102.6 kPa, Liquid	1188.84
323.37 K, 2129.9 kPa, Liquid	1189.44
323.37 K, 2157.7 kPa, Liquid	1190.03
323.37 K, 2186.2 kPa, Liquid	1190.47
323.37 K, 2213.3 kPa, Liquid	1191.16
323.37 K, 2277.1 kPa, Liquid	1192.28
323.37 K, 2311.9 kPa, Liquid	1192.94
323.37 K, 2338 kPa, Liquid	1193.41
323.37 K, 2366.9 kPa, Liquid	1194
323.37 K, 2396.7 kPa, Liquid	1194.59
323.37 K, 2428 kPa, Liquid	1195.18
323.37 K, 2456.3 kPa, Liquid	1195.7
323.37 K, 2482.6 kPa, Liquid	1196.22
323.37 K, 2511.2 kPa, Liquid	1196.77
323.37 K, 2547.6 kPa, Liquid	1197.4
323.37 K, 2588.4 kPa, Liquid	1198.21
323.37 K, 2628 kPa, Liquid	1198.83
323.37 K, 2671.3 kPa, Liquid	1199.65
323.37 K, 2714.7 kPa, Liquid	1200.41
323.37 K, 2754.7 kPa, Liquid	1201.07
323.37 K, 2795.1 kPa, Liquid	1201.67
323.37 K, 2833.2 kPa, Liquid	1202.46
323.37 K, 2876 kPa, Liquid	1203.06
323.37 K, 2913.9 kPa, Liquid	1203.87
323.37 K, 2953 kPa, Liquid	1204.53
323.37 K, 2989.2 kPa, Liquid	1205.13
323.37 K, 3027.6 kPa, Liquid	1205.88
323.37 K, 3069.8 kPa, Liquid	1206.59
323.37 K, 3107.8 kPa, Liquid	1207.26
323.37 K, 3148.5 kPa, Liquid	1207.95
